Measurements as given in patent publication US11406622B2, “Glaucocalyxin a derivative, pharmaceutically acceptable salt thereof, or pharmaceutical composition thereof and uses thereof in preparation of drugs for treating psoriasis” (SUZHOU PHARMAVAN CO., LTD., priority 2017, dated 2022).
Several values for one entry are separate records, joined by “and”; a condition that tells them apart may be missing. Equal values may be shown once.

Key:
[1] = system: xylene-induced auricular swelling in mice; experiment: Xylene-induced auricular swelling in mice (Example 7); format: in vivo, mouse; settings: 7 consecutive days, xylene on 8th day
Experimental: In this example, the glaucocalyxin A derivatives and pharmaceutically acceptable salts thereof were detected for the inhibitory effect thereof on xylene-induced auricular swelling in mice. Compound 23 was used as an exemplary compound, and the detection method was as follows.
20 mice were randomly divided into 4 groups with 5 mice in each group, which were blank control group, 30 mg/kg dexamethasone treatment group, Compound 23 (10 mg/kg) treatment group, and Compound 23 (50 mg/kg) treatment group, respectively. 0.25-0.3 mL depending on the body weight was intragastrically administrated for 7 consecutive days, and an equal volume of 5% glucose injection was administrated to the blank group. On the 8th day, xylene was used to produce a model of auricular swelling in the right auricle of mice. 15 μl of xylene, an inflammatory inducer, was applied to both sides of the right auricle of each mouse, and the left auricle was left un-treated as a normal auricle control. After 1 hour, the mice were sacrificed by cervical dislocation. Both auricles were cut off along the auricle baseline, and then punched at the same position by using a puncher with a diameter of 8 mm to give auricle pieces, which were then weighed on an electronic analytical balance. The auricular swelling rate and the auricular swelling inhibitory rate were calculated according to the following formula. […]

[2] = system: human keratinocytes (HaCaT); experiment: Effect on proliferation of human keratinocytes, CCK-8, 48 h (Example 5); format: cell-based; settings: 48 hours of treatment
Experimental: In this example, the glaucocalyxin A derivatives of the present application, or pharmaceutically acceptable salts thereof, were examined for the effect on the proliferation of human keratinocytes. In this example, the glaucocalyxin A derivatives as shown in Table 1 were examined by using the following procedure. A cell suspension was prepared and inoculated into three 96-well plates at 8000 cells in a volume of 150 μl per well, which were then cultured overnight in an incubator at 37° C., 5% CO2. On the next day, 50 μl of test compound solution at different concentrations was added to each well. Triplicate wells were set up for each concentration. A vehicle control group (without compound), a cell control group (without compound and vehicle), and a blank medium control group (without cells, a well for null adjustment) were also set up, and cultured for an additional 48 hours. CCK-8 staining working solution was added at 110 μL per well, and cultured for additional 1-4 h. At the end of the culture, the absorbances were measured at 450 nm (OD450 nm) on a Bio-Tek enzyme-linked immunosorbent assay. The results were expressed as the mean OD450 nm value of triplicates±standard deviation (x±sd). The Origin 7.0 was used for plotting and analysis. A fitting curve was obtained by plotting the OD value of each group against the logarithmic concentration of the test compound, and then the IC50 value was determined.

mouse spleen lymphocytes = experiment: ConA-induced proliferation of mouse spleen lymphocytes, MTT (Example 8); format: cell-based; settings: 48 h, 5 μg/mL ConA
Experimental: In this example, the glaucocalyxin A derivatives and pharmaceutically acceptable salts thereof were detected for the effect thereof on ConA-induced proliferation of mouse spleen lymphocytes.
2×10^7/mL cell suspension was prepared and a 5 μg/μL ConA stock solution was added thereto at a final concentration of 5 μg/mL. The resulting mixture was inoculated into a 96-well culture plate at 0.1 mL per well. Then 0.1 mL of test compound at different concentrations was added to each well. Triplicate or quadruplicate wells were set up for each group, and a vehicle control group (without compound), a stimulant control group (with ConA, without compound, and without vehicle), a cell control group (without ConA, without compound, and without vehicle), and a blank medium control group (without cells, a well for null adjustment) were also set up, and cultured at 37° C., 5% CO2 for 48 h. MTT solution at 5 mg/mL was added at 20 μl per well, and cultured for an additional 4 hours. The culture plate was taken out and centrifuged at 1000 rpm for 10 min. The supernatant of each well was aspirated, and 100 μL of SDS cell lysis solution was added to each well, and cultured overnight. On the next day, the absorbance at 550 nm (OD550nm) was measured on an enzyme-linked immunoassay analyzer. The results were expressed as the mean OD550nm value of the triplicates or quadruplicates±standard deviation (x±sd). SPSS software version 17.0 was used for statistical analysis of the mean values, that is, the vehicle group was compared with the stimulant group, and the test group of each compound concentration was compared with the corresponding vehicle control group. The cell survival rate of each group was calculated according to the mean value for the compound treatment group and the mean value for the vehicle control group, that is, the cell survival rate (%)=the mean value for the compound treatment group/the mean value for the vehicle control group×100%. A linear regression equation was obtained by plotting the cell survival rate of each group against the concentration of the test compound, statistical test of the correlation coefficient was conducted, and then the IC50 value was determined.

Br.C=C1C(=O)C23C(O)CC4C(C)(C)c5nc(N(C)C)sc5CC4(C)C2CCC1C3O (stereo not shown) [Compound 23]
inhibition of auricular swelling ([1]; 10 mg/kg intragastric): effective
inhibition of auricular swelling ([1]; 50 mg/kg intragastric): effective
IC50 [2]: 0.93 µM
OD550nm value (x ± sd) (mouse spleen lymphocytes; 0.78125 μg/mL): 1.14
Survival rate (%) (mouse spleen lymphocytes; 0.78125 μg/mL): 98%
OD550nm value (x ± sd) (mouse spleen lymphocytes; 1.5625 μg/mL): 1.18
Survival rate (%) (mouse spleen lymphocytes; 1.5625 μg/mL): 101%
OD550nm value (x ± sd) (mouse spleen lymphocytes; 3.125 μg/mL): 0.52
Survival rate (%) (mouse spleen lymphocytes; 3.125 μg/mL): 45%
OD550nm value (x ± sd) (mouse spleen lymphocytes; 6.25 μg/mL): 0.29
Survival rate (%) (mouse spleen lymphocytes; 6.25 μg/mL): 25%
OD550nm value (x ± sd) (mouse spleen lymphocytes; 12.5 μg/mL): 0.07
Survival rate (%) (mouse spleen lymphocytes; 12.5 μg/mL): 6%
OD550nm value (x ± sd) (mouse spleen lymphocytes; 25 μg/mL): 0.02
Survival rate (%) (mouse spleen lymphocytes; 25 μg/mL): 2%
OD550nm value (x ± sd) (mouse spleen lymphocytes; 50 μg/mL): 0.02
Survival rate (%) (mouse spleen lymphocytes; 50 μg/mL): 2%
OD550nm value (x ± sd) (mouse spleen lymphocytes; 100 μg/mL): 0.02
Survival rate (%) (mouse spleen lymphocytes; 100 μg/mL): 1%
IC50 (mouse spleen lymphocytes; linear regression): ~9.41 µM and 9.41 µM
IC50 (μg/mL) (mouse spleen lymphocytes; linear regression): IC50 = 4.00 μg/mL
effect on ConA-induced proliferation of mouse spleen lymphocytes (in words) (mouse spleen lymphocytes; range of concentrations tested): significant effect
